Results reported in US20250161281A1, “EMOPAMIL-BINDING PROTEIN INHIBITORS AND USES THEREOF” (BIOGEN MA INC., priority 2022, published 2025).

Target: T1, EBP (Homo sapiens, UniProt Q15125)
T1 construct: HEK293T cells were utilized as the source of EBP enzyme; endogenous in cells; host or cells: HEK293T
Experiment: EBP Functional Assay (EBP immunoaffinity LC-MS assay)
Type: biochemical
Conditions: HEK293T cells as source of EBP enzyme; 30 min with inhibitor, then zymosterol-d5, 37° C. for 4 h; percent conversion by LC-APCI MRM MS
Experimental: The EBP immunoaffinity (IA) LC-MS assay measures the potency of small molecule inhibitors of EBP by quantifying their concentration-dependent changes in the enzyme's substrate and product using liquid chromatography atmospheric pressure chemical ionization multiple reaction monitoring mass spectrometry (LC-APCI MRM MS). HEK293T cells were utilized as the source of EBP enzyme. The enzyme was incubated with the small molecule inhibitors at variable concentrations for 30 min. Deuterated form of EBP substrate, zymosterol-d5 (Avanti Polar Lipids, Cat #700068P-1 mg), was then added and the plate was incubated at 37° C. for 4 h. Finally, the sterol isomers were extracted and injected to LC-APCI MRM MS. MRM transition used for the quantification for both zymosterol and dihydrolathosterol (substrate and product of EBP enzymatic reaction, respectively) is 372.3-203.2, CE 30 and DP 80 in positive ion mode. Percent conversion of the zymosterol-d5 to dehydrolathosterol-d5 was used to derive IC50 curves. Tasin-1 (1′-[(4-Methoxyphenyl)sulfonyl]-4-methyl-1,4′-bipiperidine, CAS 792927-06-1) was used as the reference small molecule inhibitor. Percent conversion versus the compound concentration data were fit to the following 4-parameter logistic model to generate IC50 curves: […]

T1 sequence (Q15125 whole entry): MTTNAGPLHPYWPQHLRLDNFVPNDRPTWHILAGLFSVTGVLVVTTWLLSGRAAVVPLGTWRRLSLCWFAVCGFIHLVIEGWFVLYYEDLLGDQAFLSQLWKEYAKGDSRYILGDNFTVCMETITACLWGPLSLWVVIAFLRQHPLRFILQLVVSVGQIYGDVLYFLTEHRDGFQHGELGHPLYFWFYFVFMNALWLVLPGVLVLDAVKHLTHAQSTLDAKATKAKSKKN

Row | Compound | IC50 [nM]
1 | O=S(=O)(c1ccc(OC(F)F)cc1)N1C2CCC1CC(NC1COC1)C2 (stereo not drawn) [Example 74, 8-((4-(Difluoromethoxy)phenyl)sulfonyl)-N-(oxetan-3-yl)-8-azabicyclo[3.2.1]octan-3-amine] | > 2000
2 | Cc1nn(C)c2ncc(S(=O)(=O)N3[C@@H]4CC[C@H]3C[C@H](N3CCC(C)CC3)C4)cc12 [Example 45, 1,3-Dimethyl-5-(((1R,3s,5S)-3-(4-methylpiperidin-1-yl)-8-azabicyclo[3.2.1]octan-8-yl)sulfonyl)-1H-pyrazolo[3,4-b]pyridine] | 150 to 2000
3 | O=S(=O)(c1ccc(OC(F)F)cc1)N1[C@@H]2CC[C@H]1C[C@@H](NC[C@H]1C[C@@H](O)C1)C2 (single isomer, unassigned) [Example 64] | 50 to 150
4 | CC(C)(O)CN[C@H]1C[C@H]2CC[C@@H](C1)N2S(=O)(=O)c1ccc(OC(F)F)cc1 [Example 77, 1-(((1R,3r,5S)-8-((4-(Difluoromethoxy)phenyl)sulfonyl)-8-azabicyclo[3.2.1]octan-3-yl)amino)-2-methylpropan-2-ol] | 50 to 150
5 | CC1(O)CCN(C2CC3CCC(C2)N3S(=O)(=O)c2ccc(OC(F)F)cc2)C1 (stereo not drawn) [Example 49, 1-(8-((4-(Difluoromethoxy)phenyl)sulfonyl)-8-azabicyclo[3.2.1]octan-3-yl)-3-methylpyrrolidin-3-ol] | 50 to 150
6 | CC1CCN([C@@H]2C[C@H]3CC[C@@H](C2)N3S(=O)(=O)c2cn(-c3ccccc3)nn2)CC1 [Example 44, (1R,3s,5S)-3-(4-Methylpiperidin-1-yl)-8-((1-phenyl-1H-1,2,3-triazol-4-yl)sulfonyl)-8-azabicyclo[3.2.1]octane] | 150 to 2000
7 | O=S(=O)(c1ccc(OC(F)F)cc1)N1C2CCC1CC(N1CCC3(COC3)C1)C2 (stereo not drawn) [Example 51, 6-(8-((4-(Difluoromethoxy)phenyl)sulfonyl)-8-azabicyclo[3.2.1]octan-3-yl)-2-oxa-6-azaspiro[3.4]octane] | 150 to 2000
8 | O=S(=O)(c1ccc(OC(F)F)cc1)N1[C@@H]2CC[C@H]1C[C@H](NC[C@H]1C[C@@H](O)C1)C2 (single isomer, unassigned) [Example 63] | 150 to 2000
9 | CC(O)CCN[C@H]1C[C@H]2CC[C@@H](C1)N2S(=O)(=O)c1ccc(OC(F)F)cc1 (mixture of isomers) [Example 59, rac-4-(((1R,3r,5S)-8-((4-(difluoromethoxy)phenyl)sulfonyl)-8-azabicyclo[3.2.1]octan-3-yl)amino)butan-2-ol] | 50 to 150
10 | CC(O)CNC1CC2CCC(C1)N2S(=O)(=O)c1ccc(OC(F)F)cc1 (stereo not drawn) [Example 48, 1-((8-((4-(Difluoromethoxy)phenyl)sulfonyl)-8-azabicyclo[3.2.1]octan-3-yl)amino)propan-2-ol] | 150 to 2000
11 | CCn1nccc1S(=O)(=O)N1[C@@H]2CC[C@H]1C[C@H](N1CCC(C)CC1)C2 [Example 13, (1R,3s,5S)-8-((1-Ethyl-1H-pyrazol-5-yl)sulfonyl)-3-(4-methylpiperidin-1-yl)-8-azabicyclo[3.2.1]octane] | < 50
12 | CC1CCN([C@H]2C[C@H]3CC[C@@H](C2)N3S(=O)(=O)c2cnc(C3CCOCC3)o2)CC1 [Example 2, 5-(((1R,3r,5S)-3-(4-Methylpiperidin-1-yl)-8-azabicyclo[3.2.1]octan-8-yl)sulfonyl)-2-(tetrahydro-2H-pyran-4-yl)oxazole] | < 50
13 | Cc1nc(C(F)(F)F)ccc1S(=O)(=O)N1[C@@H]2CC[C@H]1C[C@@H](NC1CC3(COC3)C1)C2 (single isomer, unassigned) [Example 69] | 50 to 150
14 | Cc1cc(S(=O)(=O)N2[C@@H]3CC[C@H]2C[C@@H](CN2CCOCC2)C3)n(C)n1 [Example 37, 4-(((1R,3r,5S)-8-((1,3-Dimethyl-1H-pyrazol-5-yl)sulfonyl)-8-azabicyclo[3.2.1]octan-3-yl)methyl)morpholine] | < 50
15 | O=S(=O)(c1ccc(OC(F)F)cc1)N1[C@@H]2CC[C@H]1C[C@@H](NCC1CCOCC1)C2 [Example 32, (1R,3r,5S)-8-((4-(Difluoromethoxy)phenyl)sulfonyl)-N-((tetrahydro-2H-pyran-4-yl)methyl)-8-azabicyclo[3.2.1]octan-3-amine] | < 50
16 | CC1CCN([C@@H]2C[C@H]3CC[C@@H](C2)N3S(=O)(=O)c2c3c(nn2C)CCOC3)CC1 [Example 9, 2-Methyl-3-(((1R,3s,5S)-3-(4-methylpiperidin-1-yl)-8-azabicyclo[3.2.1]octan-8-yl)sulfonyl)-2,4,6,7-tetrahydropyrano[4,3-c]pyrazole] | < 50

Further lines, results first:

Row | IC50 [nM] | Compound
17 | < 50 | O=S(=O)(c1ccc(OC(F)F)cc1)N1[C@@H]2CC[C@H]1C[C@@H](NCC1COC1)C2 [Example 72, (1R,3r,5S)-8-((4-(Difluoromethoxy)phenyl)sulfonyl)-N-(oxetan-3-ylmethyl)-8-azabicyclo[3.2.1]octan-3-amine]
18 | < 50 | Cc1nc(C(F)(F)F)ccc1S(=O)(=O)N1[C@@H]2CC[C@H]1C[C@H](NCC1CCOCC1)C2 (single isomer, unassigned) [Example 24]
19 | < 50 | COCc1ccc(S(=O)(=O)N2[C@@H]3CC[C@H]2C[C@H](N2CCC(C)CC2)C3)o1 [Example 8, (1R,3s,5S)-8-((5-(Methoxymethyl)furan-2-yl)sulfonyl)-3-(4-methylpiperidin-1-yl)-8-azabicyclo[3.2.1]octane]
20 | < 50 | O=S(=O)(c1ccc(OC(F)F)cc1)N1C2CCC1CC(N1C3CCCC1CC(F)(F)C3)C2 (stereo not drawn) [Example 16, 9-(8-((4-(Difluoromethoxy)phenyl)sulfonyl)-8-azabicyclo[3.2.1]octan-3-yl)-3,3-difluoro-9-azabicyclo[3.3.1]nonane]
21 | < 50 | O=S(=O)(c1ccc(OC(F)F)cc1)N1C2CCC1CC(NC1CCC1O)C2 (stereo not drawn) [Example 14, 2-((8-((4-(Difluoromethoxy)phenyl)sulfonyl)-8-azabicyclo[3.2.1]octan-3-yl)amino)cyclobutan-1-ol]
22 | < 50 | Cc1nc(C(F)(F)F)ccc1S(=O)(=O)N1[C@@H]2CC[C@H]1C[C@H](N1CC3(COC3)C1)C2 (single isomer, unassigned) [Example 22]
23 | < 50 | O=S(=O)(c1ccc(OC(F)F)cc1)N1[C@@H]2CC[C@H]1C[C@H](NCC1(O)CCOCC1)C2 [Example 18, 4-((((1R,3s,5S)-8-((4-(Difluoromethoxy)phenyl)sulfonyl)-8-azabicyclo[3.2.1]octan-3-yl)amino)methyl)tetrahydro-2H-pyran-4-ol]
24 | < 50 | CC1CCN([C@@H]2C[C@H]3CC[C@@H](C2)N3S(=O)(=O)c2ccc3c(c2)CC(C)(C)C(=O)N3)CC1 [Example 5, 3,3-Dimethyl-6-(((1R,3s,5S)-3-(4-methylpiperidin-1-yl)-8-azabicyclo[3.2.1]octan-8-yl)sulfonyl)-3,4-dihydroquinolin-2(1H)-one]
25 | < 50 | Cc1nc(C(F)(F)F)ccc1S(=O)(=O)N1[C@@H]2CC[C@H]1C[C@@H](NCC1(C)COC1)C2 (single isomer, unassigned) [Example 27]
26 | < 50 | CC12CC(NC3CC4CCC(C3)N4S(=O)(=O)c3ccc(OC(F)F)cc3)(CO1)C2 (stereo not drawn) [Example 30, 8-((4-(Difluoromethoxy)phenyl)sulfonyl)-N-(1-methyl-2-oxabicyclo[2.1.1]hexan-4-yl)-8-azabicyclo[3.2.1]octan-3-amine]
27 | < 50 | O=S(=O)(c1ccc(OC(F)F)cc1)N1[C@@H]2CC[C@H]1C[C@H](NCC1COC1)C2 [Example 31, (1R,3s,5S)-8-((4-(Difluoromethoxy)phenyl)sulfonyl)-N-(oxetan-3-ylmethyl)-8-azabicyclo[3.2.1]octan-3-amine]
28 | < 50 | Cc1nc(C(F)(F)F)ccc1S(=O)(=O)N1[C@@H]2CC[C@H]1C[C@@H](NCC1CCOCC1)C2 (single isomer, unassigned) [Example 25]
29 | < 50 | O=S(=O)(c1ccc(OC(F)F)cc1)N1C2CCC1CC(N1CC3CCC(C3)C1)C2 (stereo not drawn) [Example 58, 8′-((4-(Difluoromethoxy)phenyl)sulfonyl)-3,8′-diaza-3,3′-bi(bicyclo[3.2.1]octane)]
30 | < 50 | Cc1cc(S(=O)(=O)N2[C@@H]3CC[C@H]2C[C@H](CN2CCOCC2)C3)n(C)n1 [Example 36, 4-(((1R,3s,5S)-8-((1,3-Dimethyl-1H-pyrazol-5-yl)sulfonyl)-8-azabicyclo[3.2.1]octan-3-yl)methyl)morpholine]
31 | < 50 | Cc1nonc1S(=O)(=O)N1[C@@H]2CC[C@H]1C[C@@H](N1CCC(C)CC1)C2 [Example 1, 3-Methyl-4-(((1R,3r,5S)-3-(4-methylpiperidin-1-yl)-8-azabicyclo[3.2.1]octan-8-yl)sulfonyl)-1,2,5-oxadiazole]
32 | < 50 | CC1CCN([C@@H]2C[C@H]3CC[C@@H](C2)N3S(=O)(=O)c2cn3c(n2)CCCC3C)CC1 (stereo partly drawn) [Example 11, 5-Methyl-2-(((1R,3s,5S)-3-(4-methylpiperidin-1-yl)-8-azabicyclo[3.2.1]octan-8-yl)sulfonyl)-5,6,7,8-tetrahydroimidazo[1,2-a]pyridine]
33 | < 50 | O=S(=O)(c1ccc(OC(F)F)cc1)N1C2CCC1CC(NC1CCOCC1)C2 (stereo not drawn) [Example 73, 8-((4-(Difluoromethoxy)phenyl)sulfonyl)-N-(tetrahydro-2H-pyran-4-yl)-8-azabicyclo[3.2.1]octan-3-amine]
